Patent publication US6887873B2, “Triazine derivatives and their application as antitelomerase agents” (Aventis Pharma S.A., priority 2001, dated 2005)
pIC50: −log10 of the molar value. Where two headings read alike, the source gives them in different places.

How the values were obtained:
A549 cells = experiment: Cytotoxic activity on human tumour line A549, neutral red, 96 hours; format: cell-based; conditions: read-out: Cytotox. A549 IC50
Experimental: The cytotoxic biological activity on human tumour lines is determined according to the following experimental protocol:
The human cell lines A549 are obtained from ATCC (American Type Culture Collection, Rockville, USA). The A549 cells are cultured in a layer in a culture flask in RPMI 1640 medium containing L-glutamine at 2 mM, penicillin 200 U/ml, streptomycin 200 μg/ml and supplemented with 10% heat-inactivated foetal calf serum. The KB cells are cultured in a layer in a culture flask in Dulbelco's medium containing L-glutamine at 2 mM, penicillin 200 U/ml, streptomycin 200 μg/ml and supplemented with 10% heat-inactivated foetal calf serum.
The cells at the exponential growth phase are trypsinized, washed in 1×PBS and are inoculated in 96-well microplates (Costar) in an amount of 4×10^4 cells/ml for A549 and of 1.5×10^4 cells/ml (0.2 ml/well) and then incubated for 96 hours in the presence of variable concentrations of product to be studied (10, 1, 0.1 and 0.01 μM, each point in quadruplicate). 16 hours before the end of the incubation, 0.02% final of neutral red is added to each well. At the end of the incubation, the cells are washed with 1×PBS and lysed with 1% sodium lauryl sulphate. The cellular incorporation of the dye, which reflects cellular growth, is evaluated by spectro-photometry at a wavelength of 540 nm for each sample with the aid of a Dynatech MR5000 reading apparatus.
For each compound concentration tested, the results are expressed as percentage of inhibition of cellular growth and calculated from the untreated control and the culture medium free of cells (blank) according to the following formula: (compound value−blank value/cell control value−blank value)×100.
The concentration of compound inducing a 50% inhibition of growth (IC50) is determined with the aid of a semilogarithmic graphical representation of the inhibition values obtained as a function of each of the compound concentrations tested.
A compound is considered to be active as cytotoxic agent if the concentration inhibiting the growth of the tumour cells tested by 50% is in particular less than 10 μM.

[1] = test system: G-quadruplex of oligonucleotide GGGTTAGGGTTAGGGTTAGGG (3.5 repeats of the human telomereic motif); experiment: G-quadruplex stabilizing activity, fluorescence Tm (FAM+DABCYL oligonucleotide); format: binding
Summary of the method: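 FAM/DABCYL-labelled telomeric oligonucleotide (0.2 μM strand) in 10 mM sodium cacodylate pH 7.6 with 0.1 M LiCl (or NaCl) was annealed, then incubated ≥1 h at 20 °C with compound at 1 μM final. Samples were heated 20→80 °C, with excitation at 470 nm and emission at 515/588 nm. Tm is the 515 nm emission midpoint.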

Row | SMILES | pIC50 (A549 cells; Homo sapiens, A549, A549) | G4 delta Tm [1] [°C] | pIC50 (A549 cells; A549)
1 | Cc1cc(N(C)C)c2cc(Nc3nc(NCCCN(C)C)nc(Nc4ccc5nc(C)cc(N(C)C)c5c4)n3)ccc2n1 [Example 1, 2,4-bis(4-dimethylamino-2-methylquinolin-6-yl)amino-6-(3-dimethylaminopropyl)amino-[1,3,5]triazine] | 6.64 | 11.3 | 
2 | Cc1cc(N)c2cc(Nc3nc(Nc4ccc5nc(C)cc(N)c5c4)nc(Nc4ccc5nc(C)cc(N)c5c4)n3)ccc2n1 [Example 2, 2,4,6-tris(4-amino-2-methylquinolin-6-yl)amino-[1,3,5]triazine] | 5.00 | 18 | 
3 | Cc1cc(N)c2cc(Nc3nc(Nc4ccc5nc(C)cc(N(C)C)c5c4)nc(Nc4ccccc4Cl)n3)ccc2n1 [Example 3] | 5.22 | 5.5 | 
4 | Cc1cc(N)c2cc(Nc3nc(Nc4ccc(N5CCNCC5)cc4)nc(Nc4ccc5nc(C)cc(N)c5c4)n3)ccc2n1 [Example 15] | 5.73 | 2.7 | 
5 | Cc1cc(N)c2cc(Nc3nc(Nc4ccc5nc(C)cc(N)c5c4)nc(NC4CN5CCC4CC5)n3)ccc2n1 (stereo not shown) [Example 17, 2,4-bis(4-amino-2-methylquinolin-6-yl)amino-6-(quinuclidin-3-yl)amino-[1,3,5]triazine] | 5.56 | 17.1 | 
6 | Cc1cc(N(C)C)c2cc(Nc3nc(Nc4ccncc4)nc(Nc4ccc5nc(C)cc(N(C)C)c5c4)n3)ccc2n1 [Example 18] | 5.54 | 2.4 | 
7 | Cc1cc(N(C)C)c2cc(Nc3nc(Nc4ccc5nc(C)cc(N(C)C)c5c4)nc(C4CCN(C)CC4)n3)ccc2n1 [Example 19, 2,4-bis(4-dimethylamino-2-methylquinolin-6-yl)amino-6-(1-methylpiperidin-4-yl)-[1,3,5]triazine] | 6.52 | 3.5 | 
8 | Cc1cc(N(C)C)c2cc(Nc3nc(Nc4ccc5nc(C)cc(N(C)C)c5c4)nc(N4CCN(C)CC4)n3)ccc2n1 [Example 20, 2,4-bis(4-dimethylamino-2-methylquinolin-6-yl)amino-6-(4-methylpiperazin-1-yl)-[1,3,5]triazine] | 6.46 | 6.4 | 
9 | Cc1cc(N(C)C)c2cc(Nc3nc(NCc4ccncc4)nc(Nc4ccc5nc(C)cc(N(C)C)c5c4)n3)ccc2n1 [Example 27, 2,4-bis(4-dimethylamino-2-methylquinolin-6-yl)amino-6-(pyridin-4-yl)methylamino-[1,3,5]triazine] |  | 11.0 | 6.00
10 | CCN(CCNc1nc(Nc2ccc3nc(C)cc(N(C)C)c3c2)nc(Nc2ccc3nc(C)cc(N(C)C)c3c2)n1)c1cccc(C)c1 [Example 28] | 5.82 | 10.6 | 
11 | Cc1cc(N)c2cc(Nc3nc(Nc4ccc5nc(C)cc(N)c5c4)nc(NC4CCN(Cc5ccccc5)C4)n3)ccc2n1 (stereo not shown) [Example 41] | 5.00 | 19 | 
12 | Cc1cc(N)c2cc(Nc3nc(Nc4ccc5nc(C)cc(N)c5c4)nc(N4CCN(C5CCCC5)CC4)n3)ccc2n1 [Example 43] | 5.00 | 18 | 
13 | Cc1cc(N)c2cc(Nc3nc(NCc4ccc([N+](C)(C)C)cc4)nc(Nc4ccc5nc(C)cc(N)c5c4)n3)ccc2n1 [Example 60] | 5.24 | 6 | 
14 | Cc1cc(N)c2cc(Nc3nc(Nc4ccc5nc(C)cc(N)c5c4)nc(N4CCN(C(=O)c5ccco5)CC4)n3)ccc2n1 [Example 68] | 4.94 | 8 | 
15 | Cc1cc(N)c2cc(Nc3nc(Nc4ccc5nc(C)cc(N)c5c4)nc(N4CCN(C5CCCCCCC5)CC4)n3)ccc2n1 [Example 77] | 5.25 | 12.5 | 
16 | Cc1cc(N)c2cc(Nc3nc(Nc4ccc5nc(C)cc(N)c5c4)nc(N4CCCC4c4cccnc4)n3)ccc2n1 (stereo not shown) [Example 86] | 4.72 | 6 | 
17 | Cc1cc(N)c2cc(Nc3nc(Nc4ccc5nc(C)cc(N)c5c4)nc(N(Cc4ccccc4)C4CN5CCC4CC5)n3)ccc2n1 (stereo not shown) [Example 92] | 5.11 | 3.5 | 
18 | Cc1cc(N)c2cc(Nc3nc(Nc4ccc5nc(C)cc(N)c5c4)nc(NC4CCN(Cc5ccccc5)CC4)n3)ccc2n1 [Example 93] | 5.03 | 8 | 

Row | SMILES | pIC50 (A549 cells; Homo sapiens, A549, A549) | G4 delta Tm [1] [°C] | pIC50 (A549 cells; A549)
19 | Cc1cc(N)c2cc(Nc3nc(Nc4ccc5nc(C)cc(N)c5c4)nc(Oc4ccccc4Cl)n3)ccc2n1 [Example 103] | 4.95 | 7 | 
20 | COc1cccc(Oc2nc(Nc3ccc4nc(C)cc(N)c4c3)nc(Nc3ccc4nc(C)cc(N)c4c3)n2)c1 [Example 104] | 4.94 | 4.5 | 
21 | Cc1cc(N)c2cc(Nc3nc(Nc4ccc5nc(C)cc(N)c5c4)nc(OCCN(C)Cc4ccccc4)n3)ccc2n1 [Example 105] | 4.94 | 12 | 
22 | Cc1cc(N(C)C)c2cc(Nc3nc(Nc4ccc5nc(C)cc(N(C)C)c5c4)nc(Oc4ccncc4)n3)ccc2n1 [Example 115, 2,4-bis(4-dimethylamino-2-methylquinolin-6-yl)amino-6-(pyridin-4-yl)oxy-[1,3,5]triazine] | 5.80 | 13 | 
23 | Cc1cc(N)c2cc(Nc3nc(Nc4ccc5nc(C)cc(N)c5c4)nc(Sc4ccccc4Cl)n3)ccc2n1 [Example 118] | 4.86 | 3.5 | 
24 | Cc1cc(N)c2cc(Nc3nc(Nc4ccc5nc(C)cc(N)c5c4)nc(Sc4ccccn4)n3)ccc2n1 [Example 120] | 4.75 | 11.5 | 
25 | COc1ccc(CSc2nc(Nc3ccc4nc(C)cc(N)c4c3)nc(Nc3ccc4nc(C)cc(N)c4c3)n2)cc1 [Example 124] | 5.21 | 3 | 
26 | Cc1cc(N)c2cc(Nc3nc(Nc4ccc5nc(C)cc(N)c5c4)nc(Sc4ncccn4)n3)ccc2n1 [Example 126] | 4.94 | 19 | 
27 | Cc1cc(C)nc(Sc2nc(Nc3ccc4nc(C)cc(N)c4c3)nc(Nc3ccc4nc(C)cc(N)c4c3)n2)n1 [Example 127] | 4.80 | 14 | 
28 | Cc1cc(N)c2cc(Nc3nc(Nc4ccc5nc(C)cc(N)c5c4)nc(Sc4ccc5ccccc5n4)n3)ccc2n1 [Example 128, 2,4-bis(4-amino-2-methylquinolin-6-yl)amino-6-(quinolin-2-yl)thio-[1,3,5]triazine] | 5.54 | 15 | 
29 | Cc1cc(N(C)C)c2cc(Nc3nc(Nc4ccc5nc(C)cc(N(C)C)c5c4)nc(N4CCCN(C)CC4)n3)ccc2n1 [Example 135, 2,4-bis(4-dimethylamino-2-methylquinolin-6-yl)amino-6-(1-methylhomopiperazin-4-yl)-[1,3,5]triazine] | 7.15 | 20 | 
30 | Cc1cc(N(C)C)c2cc(Nc3nc(Nc4ccc5nc(C)cc(N(C)C)c5c4)nc(N4CCN(CCCN(C)C)CC4)n3)ccc2n1 [Example 136, 2,4-bis(4-dimethylamino-2-methylquinolin-6-yl)amino-6-[1-(3-dimethylaminopropyl)piperazin-4-yl]-[1,3,5]triazine] | 7.59 | 20.5 | 
31 | CCCN(CCC)CCN1CCN(c2nc(Nc3ccc4nc(C)cc(N(C)C)c4c3)nc(Nc3ccc4nc(C)cc(N(C)C)c4c3)n2)CC1 [Example 137, 2,4-bis(4-dimethylamino-2-methylquinolin-6-yl)amino-6-[1-(2-dipropylaminoethyl)piperazin-4-yl]-[1,3,5]triazine] | 6.82 | 16 | 
32 | Cc1cc(N(C)C)c2cc(Nc3nc(Nc4ccc5nc(C)cc(N(C)C)c5c4)nc(N(C)C4CCN(C)CC4)n3)ccc2n1 [Example 138, 2,4-bis(4-dimethylamino-2-methylquinolin-6-yl)amino-6-[N-(1-methylpiperidin-4-yl)-N-methylamino]-[1,3,5]triazine] | 7.21 | 16 | 
33 | Cc1cc(N(C)C)c2cc(Nc3nc(Nc4ccc5nc(C)cc(N(C)C)c5c4)nc(N4CCCN(CCCN5CCCC5)CC4)n3)ccc2n1 [Example 139] | 7.35 | 18.5 | 
34 | Cc1cc(N(C)C)c2cc(Nc3nc(NCCN4CCN(Cc5ccccc5)CC4)nc(Nc4ccc5nc(C)cc(N(C)C)c5c4)n3)ccc2n1 [Example 140] | 6.29 | 5.5 | 
35 | Cc1cc(N(C)C)c2cc(Nc3nc(Nc4ccc5nc(C)cc(N(C)C)c5c4)nc(N4CCN(CCOCCO)CC4)n3)ccc2n1 [Example 141, 2,4-bis(4-dimethylamino-2-methylquinolin-6-yl)amino-6-{[1-2-(2-hydroxyethyl)oxyethyl]piperazin-4-yl}-[1,3,5]triazine] | 7.02 | 7 | 
